Measured values as given in patent US3956336A, “9-Alkoxy-5-methyl-6,7-benzomorphans” (Bristol-Myers Company, priority 1975, dated 1976).

Key:
Assay type in all cases: in vivo
[1] = tested on: analgesic effect induced by morphine; assay: animal or person; conditions: subcutaneous, morphine 15 mg./kg. sc., 50 percent reduction of analgesic effect, as free base; for ED50: rat, read-out: ED50 Antagonist Activity, Morphine Antagonism Rat Tail Flick
Method: (§1) In vivo testing was conducted on various compounds of the instant invention in the form of their respective soluble salts to determine their agonist and/or antagonist properties. The figures reported are the number of milligrams/kilogram of body weight of compound that produced an agonist or antagonist effect in 50% of the mice and rats so tested (ED50). All data is obtained by subcutaneous administration.
(15 mg./kg. sc.) as measured by the rat tail flick procedure (Harris, L.
S. and Pierson, A. K., J. Pharmacol. & Expt. Therap., 143, 141; 1964).

[2] = tested on: phenylquinone induced writhing; assay: Phenylquinone writhing, agonist activity, mouse; conditions: subcutaneous, 50 percent reduction in number of writhing, as free base; for ED50: sc
Method: as §1
(§2) ^1 A 50 percent reduction in number of phenylquinone induced writhing
(§3) (Siegmund, E. A. et al., Proc. Soc. Biol. & Med. 95, 729; 1957).

[3] = tested on: Straub Tail induced by oxymorphone; assay: Antagonism of oxymorphone-induced Straub Tail; conditions: mice, subcutaneous, oxymorphone 2 mg./kg. sc., as free base; for ED50: Mus musculus, read-out: ED50 Antagonist Activity, Oxymorphone Straub Tail
Method: as §1
^2 Antagonism of Straub Tail induced by oxymorphone (2 mg./kg. sc.) i

[4] = tested on: phenylquinone induced writhing; assay: Phenylquinone writhing, agonist activity, rat; conditions: subcutaneous, 50 percent reduction in number of writhing, as free base
Method: as §1, §2, §3

[5] = tested on: righting reflex loss induced by oxymorphone; assay: animal or person; conditions: rats, subcutaneous, oxymorphone 1.5 mg./kg. sc., as free base; for ED50: Rattus norvegicus, read-out: ED50 Antagonist Activity, Oxymorphone Narcosis
Method: as §1
^3 Antagonism of righting reflex loss induced by oxymorphone (1.5
mg./kg. sc.) in 50 percent of rats.

SMILES	ED50 [1] [mg/kg]	ED50 [2] [mg/kg]	ED50 [3] [mg/kg]	other results
CCCC12CCN(CC3CC3)C(Cc3ccc(O)cc31)C2OC (racemic) [dl-XIIn, 2-cyclopropylmethyl-2'-hydroxy-9α-methoxy-5-propyl-6,7-benzomorphan]	0.033	0.2		
COC1(C)C2Cc3ccc(O)cc3C1(C)CCN2CC1CCC1 (racemic) [dl-XIIv, 2-Cyclobutylmethyl-5,9β-dimethyl-2'-hydroxy-9β-methoxy-6,7-benzomorphan]				ED50 Agonist Activity, Phenylquinone Writhing, Mouse [2]: 0.19 mg/kg; ED50 Antagonist Activity, Oxymorphone Straub Tail [3]: 7.5 mg/kg
CO[C@H]1[C@H]2Cc3ccc(O)cc3[C@]1(C)CCN2CC1CC1 (relative stereo) [dl-XIIa, 2-Cyclopropylmethyl-2'-hydroxy-9α-methoxy-5-methyl-6,7-benzomorphan]	0.06	0.087	0.24	ED50 ([4]; sc): 0.034 mg/kg; ED50 [5]: 0.04 mg/kg
CO[C@@]1(C)[C@H]2Cc3ccc(O)cc3[C@]1(C)CCN2CC1CC1 (relative stereo) [dl-XIIb, 2-Cyclopropylmethyl-5,9β-dimethyl-2'-hydroxy-9α-methoxy-6,7-benzomorphan]	0.011	1.25	0.16	ED50 [5]: ~0.017 mg/kg
CO[C@@]1(C)[C@H]2Cc3ccc(O)cc3[C@]1(C)CCN2CC1CCC1 (relative stereo) [dl-XIIc, 2-Cyclobutylmethyl-5,9β-dimethyl-2'-hydroxy-9α-methoxy-6,7-benzomorphan]		2.18	1.25	
CCO[C@H]1[C@H]2Cc3ccc(O)cc3[C@]1(C)CCN2CC1CC1 (relative stereo) [dl-XIId, 2-Cyclopropylmethyl-9α-ethoxy-2'-hydroxy-5-methyl-6,7-benzomorphan]	0.029	0.33	0.32	
C=CCO[C@H]1[C@H]2Cc3ccc(O)cc3[C@]1(C)CCN2CC1CC1 (relative stereo) [dl-XIIe, 9α-Allyloxy-2-cyclopropylmethyl-2'-hydroxy-5-methyl-6,7-benzomorphan]		5.3	~0.63	
C=CC[C@]12CCN(CC3CC3)[C@H](Cc3ccc(O)cc31)[C@@H]2OC (relative stereo) [dl-XIIm, 5-Allyl-2-cyclopropylmethyl-2'-hydroxy-9α-methoxy-6,7-benzomorphan]	0.046	0.026		
CO[C@]1(C)[C@H]2Cc3ccc(O)cc3[C@]1(C)CCN2CC1CC1 (relative stereo) [dl-XIIr, 2-Cyclopropylmethyl-5,9α-dimethyl-2'-hydroxy-9β-methoxy-6,7-benzomorphan]		1.8	3.5	
CO[C@@H]1[C@H]2Cc3ccc(O)cc3[C@]1(C)CCN2CC1CC1 (relative stereo) [dl-XIIt, 2-Cyclopropylmethyl-2'-hydroxy-9β-methoxy-5-methyl-6,7-benzomorphan]	0.18	~20	~7	
COC1C2Cc3ccc(O)cc3C1(C)CCN2CC1CC1 (single isomer, unassigned; (-)) [l-XIIa, (-)-2-Cyclopropylmethyl-2'-hydroxy-9α-methoxy-5-methyl-6,7-benzomorphan]				ED50 Antagonist Activity, Morphine Antagonism Rat Tail Flick [1]: 0.019 mg/kg; ED50 Agonist Activity, Phenylquinone Writhing, Mouse [2]: 0.053 mg/kg; ED50 Antagonist Activity, Oxymorphone Straub Tail [3]: 0.10 mg/kg; ED50 Agonist Activity, Phenylquinone Writhing, Rat [4]: 0.021 mg/kg; ED50 Antagonist Activity, Oxymorphone Narcosis [5]: 0.017 mg/kg
CC(C)=CCN1CCC2(C)c3cc(O)ccc3CC1C2C (stereo not drawn) [Pentazocine, reference compound]				ED50 [5]: 10.1 mg/kg
